Measured values from US10640402B2, “Use of oxidizing and non-oxidizing biocides for control of bacteria tolerant to stabilized-oxidant treatment” (Ecolab USA Inc., priority 2012, dated 2020).

Assays:
[1] = test system: urease-producing microorganisms; assay: Antimicrobial screening of biocides for control of urease-producing microorganisms; type: cell-based
[2] = test system: Cl2-urea tolerant bacteria; assay: Biocide screening against Cl2-urea tolerant bacteria (Table 4); type: cell-based
[3] = test system: Cl2-urea tolerant bacteria; assay: Laboratory screening using process water treated with urea-stabilized chlorine (Table 5); type: cell-based; details: for control of Cl2-urea tolerant bacteria (in words): typical use rates, Table 5 screening
[4] = test system: urease; assay: Chlorine residual (TRO) with and without urease enzyme; type: physicochemical; details: control without urease
[5] = test system: process water microbial population (paper mill); assay: Initial laboratory screening of paper mill process water treated with NaOCl, before the urea-stabilized chlorine program; type: cell-based; details: 5 ppm Cl2
Experimental: (§1) The process water stream of a paper mill was treated using a urea-stabilized chlorine program.
(§2) Process water samples were challenged with untreated process water (1% v/v) after the 4-hours samples were plated. […] In Table 1, preservation from urea-stabilized chlorine was observed prior to the application of this program to the mill water system and development of the tolerant population.

[6] = test system: microbial population tolerant to urea-stabilized chlorine; assay: Repeat laboratory screening of process water after 10 months of urea-stabilized chlorine treatment; type: cell-based; details: 5 ppm Cl2
Experimental: as §1, §2

[7] = 24-hour, challenged with untreated process water (1% v/v) after 4-hour plating

Row | Structure (SMILES) | control of urease-producing microorganisms (in words) [1] | CFU/mL, 24-hour ([2]; 25 ppm product) | CFU/mL, 24-hour ([2]; 100 ppm product) | CFU/mL, 1-hour ([3]; 25 ppm product) | CFU/mL, 4-hour ([3]; 25 ppm product) | CFU/mL, 24-hour ([3]; 25 ppm product) | CFU/mL, 1-hour ([3]; 100 ppm product) | CFU/mL, 4-hour ([3]; 100 ppm product) | CFU/mL, 24-hour ([3]; 100 ppm product) | control of Cl2-urea tolerant bacteria (in words) [3] | other results
1 | N#CC(Br)(Br)C(N)=O [Dibromonitrilopropionamide, dibromonitrilopropionamide] | effective control | 4.2 × 10^3 CFU/mL | <100 CFU/mL | 1.4 × 10^5 CFU/mL | 7.0 × 10^4 CFU/mL | 3.0 × 10^4 CFU/mL | 6.0 × 10^2 CFU/mL | 2.0 × 10^2 CFU/mL | 3.0 × 10^2 CFU/mL | particularly effective | 
2 | O=[N+]([O-])C(Br)(CO)CO [Bronopol] |  | 1.0 × 10^5 CFU/mL | 1.3 × 10^4 CFU/mL |  |  |  |  |  |  | not effective | 
3 | [Na+].[O-]Cl [NaOCl, sodium hypochlorite] | also effective |  |  |  |  |  |  |  |  | also effective, but was required at higher concentrations | TRO (as ppm Cl2), 1-hour ([4]; 1-hour): 4.6 ppm Cl2; TRO (as ppm Cl2), 4-hour ([4]; 4-hour): 4.5 ppm Cl2; TRO (as ppm Cl2), 24-hour ([4]; 24-hour): 4.1 ppm Cl2; CFU/mL, Initial Screening, 1-hour ([5]; 1-hour): 3.4 × 10^5 CFU/mL; CFU/mL, Initial Screening, 4-hour ([5]; 4-hour): 3.6 × 10^6 CFU/mL; CFU/mL, Initial Screening, 24-hour [5, 7]: 1.9 × 10^7 CFU/mL; CFU/mL, Repeat Screening, 1-hour ([6]; 1-hour): 2.8 × 10^6 CFU/mL; CFU/mL, Repeat Screening, 4-hour ([6]; 4-hour): 6.0 × 10^6 CFU/mL; CFU/mL, Repeat Screening, 24-hour [6, 7]: 3.6 × 10^7 CFU/mL; CFU/mL, 24-hour ([2]; 2.5 ppm as Cl2): 5.1 × 10^5 CFU/mL; CFU/mL, 24-hour ([2]; 10.0 ppm as Cl2): <100 CFU/mL; CFU/mL, 1-hour ([3]; 2.5 ppm as Cl2): 1.9 × 10^5 CFU/mL; CFU/mL, 4-hour ([3]; 2.5 ppm as Cl2): 2.0 × 10^6 CFU/mL; CFU/mL, 24-hour ([3]; 2.5 ppm as Cl2): 1.0 × 10^7 CFU/mL; CFU/mL, 1-hour ([3]; 10.0 ppm as Cl2): 2.0 × 10^2 CFU/mL; CFU/mL, 4-hour ([3]; 10.0 ppm as Cl2): 2.0 × 10^2 CFU/mL; CFU/mL, 24-hour ([3]; 10.0 ppm as Cl2): 5.0 × 10^2 CFU/mL
4 | O=CCCCC=O [Glutaraldehyde, glutaraldehyde] | effective control | 100 CFU/mL | <100 CFU/mL | 1.0 × 10^6 CFU/mL | 8.5 × 10^3 CFU/mL | 1.0 × 10^2 CFU/mL | 1.0 × 10^2 CFU/mL | 1.0 × 10^2 CFU/mL | 2 × 10^2 CFU/mL | particularly effective | 
